Data from patent US12410160B2 (Gilead Sciences, Inc., priority 2021, dated 2025).

Experiments:
human KHK-C = human KHK-C (Homo sapiens (Human), UniProt P50053); test: KHK Biochemical Assay (IC50), ADP-Glo, KHK-C; settings: average of at least two separate assays
How it was run: (§1)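 Luminescent ADP-Glo read-out of ADP made by His-tagged KHK (BL21 (DE3) expression, Ni-NTA). Enzyme and compound sat together 30 min before ATP/fructose addition, then reacted 4 h at RT in Hepes pH 7.4 buffer with KCl, MgCl2, Triton-X. Quench 1 h, detection 1 h.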

human KHK-A = human KHK-A (Homo sapiens (Human), UniProt P50053); test: KHK Biochemical Assay (IC50), ADP-Glo, KHK-A; settings: average of at least two separate assays
How it was run: as §1

human KHK-A, sequence (P50053 other isoform, or with tags, fused parts or gaps): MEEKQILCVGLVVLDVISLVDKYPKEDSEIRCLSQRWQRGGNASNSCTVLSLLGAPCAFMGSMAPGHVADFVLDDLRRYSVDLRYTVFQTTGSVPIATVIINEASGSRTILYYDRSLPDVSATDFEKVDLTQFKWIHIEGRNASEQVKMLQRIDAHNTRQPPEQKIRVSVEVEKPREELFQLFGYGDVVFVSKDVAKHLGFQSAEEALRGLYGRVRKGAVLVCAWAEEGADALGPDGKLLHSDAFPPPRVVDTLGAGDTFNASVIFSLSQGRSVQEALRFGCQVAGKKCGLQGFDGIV
human KHK-C, sequence (P50053 whole entry): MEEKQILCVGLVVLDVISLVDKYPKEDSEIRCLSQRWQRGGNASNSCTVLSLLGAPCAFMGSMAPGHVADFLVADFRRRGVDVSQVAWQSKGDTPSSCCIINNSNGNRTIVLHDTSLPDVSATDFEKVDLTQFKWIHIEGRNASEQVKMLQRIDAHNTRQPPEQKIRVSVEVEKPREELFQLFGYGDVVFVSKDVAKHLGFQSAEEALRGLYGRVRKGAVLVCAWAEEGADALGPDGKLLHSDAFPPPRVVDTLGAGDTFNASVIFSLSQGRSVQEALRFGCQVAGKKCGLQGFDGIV

SMILES	IC50 (human KHK-C; ADP-Glo)	IC50 (human KHK-A; ADP-Glo)	IC50 (human KHK-C)	IC50 (human KHK-A)
Cc1cc(-c2nc(N3CC[C@@H]3C)nc3c2CCC3)ccc1C(=O)NCCO [Example 356, N-(2-hydroxyethyl)-2-methyl-4-[2-[(2S)-2-methylazetidin-1-yl]-6,7-dihydro-5H-cyclopenta[d]pyrimidin-4-yl]benzamide]	79.9 nM	70.6 nM		
Cc1cc(-c2nc(N3CC[C@@H]3C)nc3c2CCC3)ccc1C(=O)N(C)C [Example 357, N,N,2-trimethyl-4-[2-[(2S)-2-methylazetidin-1-yl]-6,7-dihydro-5H-cyclopenta[d]pyrimidin-4-yl]benzamide]	162 nM	122 nM		
C[C@H]1CCN1c1nc2c(c(-c3ccc(CNC(=O)c4ccccc4)cc3)n1)CCC2 [Example 360, N-[[4-[2-[(2S)-2-methylazetidin-1-yl]-6,7-dihydro-5H-cyclopenta[d]pyrimidin-4-yl]phenyl]methyl]benzamide]	253 nM	169 nM		
C[C@H]1[C@H](O)CN1c1nc2c(c(-c3ccc(CN)s3)n1)CCC2 [Example 363, (2S,3R)-1-[4-[5-(aminomethyl)-2-thienyl]-6,7-dihydro-5H-cyclopenta[d]pyrimidin-2-yl]-2-methyl-azetidin-3-ol]	29.1 nM	25.8 nM		
C[C@H]1CCN1c1nc2c(c(-c3ccc(CN4CCOCC4)cc3)n1)CCC2 [Example 367, 4-[[4-[2-[(2S)-2-methylazetidin-1-yl]-6,7-dihydro-5H-cyclopenta[d]pyrimidin-4-yl]phenyl]methyl]morpholine]	176 nM	224 nM		
C[C@H]1CCN1c1nc2c(c(-c3ccc(CN(C)C)cc3)n1)CCC2 [Example 368, N,N-dimethyl-1-[4-[2-[(2S)-2-methylazetidin-1-yl]-6,7-dihydro-5H-cyclopenta[d]pyrimidin-4-yl]phenyl]methanamine]	20 nM	38.3 nM		
C[C@H]1CCN1c1nc2c(c(-c3ccc(C(C)(C)O)cc3)n1)CCC2 [Example 369, 2-[4-[2-[(2S)-2-methylazetidin-1-yl]-6,7-dihydro-5H-cyclopenta[d]pyrimidin-4-yl]phenyl]propan-2-ol]	87.1 nM	186 nM		
C[C@H]1CCN1c1nc2c(c(-c3cccc(C(N)=O)c3)n1)C1CC1C2 (stereo partly drawn) [Example 445, 3-(2-((S)-2-methylazetidin-1-yl)-4b,5,5a,6-tetrahydrocyclopropa[3,4]cyclopenta[1,2-d]pyrimidin-4-yl)benzamide]			306 nM	130 nM
C[C@H]1CCN1c1nc2c(c(-c3ccc4c(c3)[nH]c(=O)n4C)n1)CCC2 [Example 452, 3-methyl-6-[2-[(2S)-2-methylazetidin-1-yl]-6,7-dihydro-5H-cyclopenta[d]pyrimidin-4-yl]-1H-benzimidazol-2-one]			68.3 nM	103 nM
C[C@H]1[C@H](O)CN1c1nc(-c2ccc3c(c2)OCC32COCC(=O)N2)c2c(n1)C(F)(F)CC2 (stereo partly drawn) [Example 497, 6-(7,7-difluoro-2-((2S,3R)-3-hydroxy-2-methylazetidin-1-yl)-6,7-dihydro-5H-cyclopenta[d]pyrimidin-4-yl)-2H-spiro[benzofuran-3,3′-morpholin]-5′-one]			0.1 nM	2.2 nM
C[C@H]1[C@H](O)CN1c1nc(-c2ccc(OC3CC3)c(S(C)(=N)=O)c2)c2c(n1)C(F)(F)CC2 (stereo partly drawn) [Example 541, (2-cyclopropoxy-5-(7,7-difluoro-2-((2S,3R)-3-hydroxy-2-methylazetidin-1-yl)-6,7-dihydro-5H-cyclopenta[d]pyrimidin-4-yl)phenyl)(imino)(methyl)-λ^6-sulfanone]			1.3 nM	0.9 nM
C[C@H]1[C@H](O)CN1c1nc(-c2ccc3c(c2)CCC32COCC(=O)N2)c2c(n1)C(F)(F)CC2 (stereo partly drawn) [Example 548, 5-(7,7-difluoro-2-((2S,3R)-3-hydroxy-2-methylazetidin-1-yl)-6,7-dihydro-5H-cyclopenta[d]pyrimidin-4-yl)-2,3-dihydrospiro[indene-1,3′-morpholin]-5′-one]			0.1 nM	7.3 nM
C[C@H]1[C@H](O)CN1c1nc(-c2ccc3c(c2)OCCC32NC(=O)NC2=O)c2c(n1)C(F)(F)CC2 (stereo partly drawn) [Example 551, 7-(7,7-difluoro-2-((2S,3R)-3-hydroxy-2-methylazetidin-1-yl)-6,7-dihydro-5H-cyclopenta[d]pyrimidin-4-yl)spiro[chromane-4,4′-imidazolidine]-2′,5′-dione]			0.9 nM	5.1 nM
C[C@H]1[C@H](O)CN1c1nc(-c2ccc3c(c2)OCCC32COC(=O)N2)c2c(n1)C(F)(F)CC2 (stereo partly drawn) [Example 553, 7-(7,7-difluoro-2-((2S,3R)-3-hydroxy-2-methylazetidin-1-yl)-6,7-dihydro-5H-cyclopenta[d]pyrimidin-4-yl)spiro[chromane-4,4′-oxazolidin]-2′-one]			1.6 nM	15.3 nM
C[C@H]1[C@H](O)CN1c1nc(-c2ccc3c(c2)COCC32COC(=O)N2)c2c(n1)C(F)(F)CC2 (stereo partly drawn) [Example 554, 7-(7,7-difluoro-2-((2S,3R)-3-hydroxy-2-methylazetidin-1-yl)-6,7-dihydro-5H-cyclopenta[d]pyrimidin-4-yl)spiro[isochromane-4,4′-oxazolidin]-2′-one]			2.8 nM	29.2 nM
C[C@H]1[C@H](O)CN1c1nc(-c2ccc3c(c2)CC2OC(=O)NC32)c2c(n1)C(F)(F)CC2 (stereo partly drawn) [Example 557, 6-(7,7-difluoro-2-((2S,3R)-3-hydroxy-2-methylazetidin-1-yl)-6,7-dihydro-5H-cyclopenta[d]pyrimidin-4-yl)-3,3a,8,8a-tetrahydro-2H-indeno[1,2-cl]oxazol-2-one]			8.6 nM	10.8 nM
CC1OCC2(COc3cc(-c4nc(N5C[C@@H](O)[C@@H]5C)nc5c4CCC5(F)F)ccc32)NC1=O (stereo partly drawn) [Example 558, 6-(7,7-difluoro-2-((2S,3R)-3-hydroxy-2-methylazetidin-1-yl)-6,7-dihydro-5H-cyclopenta[d]pyrimidin-4-yl)-6′-methyl-2H-spiro[benzofuran-3,3′-morpholin]-5′-one]			0.2 nM	8.2 nM
COC[C@H]1CCN1c1nc(-c2ccc(C3(N)COC3)cc2)c2c(n1)C(F)(F)CC2 [Example 569, (R)-3-(4-(7,7-difluoro-2-(2-(methoxymethyl)azetidin-1-yl)-6,7-dihydro-5H-cyclopenta[d]pyrimidin-4-yl)phenyl)oxetan-3-amine]			15.2 nM	43 nM
C[C@H]1CCCN1c1nc(-c2ccc(C3(N)COC3)cc2)c2c(n1)C(F)(F)CC2 [Example 570, (S)-3-(4-(7,7-difluoro-2-(2-methylpyrrolidin-1-yl)-6,7-dihydro-5H-cyclopenta[d]pyrimidin-4-yl)phenyl)oxetan-3-amine]			10.9 nM	25 nM
NC1(c2ccc(-c3nc(N4CCC5CC54)nc4c3CCC4(F)F)cc2)COC1 (centres unmarked) [Example 571, 3-(4-(2-(2-azabicyclo[3.1.0]hexan-2-yl)-7,7-difluoro-6,7-dihydro-5H-cyclopenta[d]pyrimidin-4-yl)phenyl)oxetan-3-amine]			49.7 nM	43.5 nM
NC1(c2ccc(-c3nc(N4CCC4C4CCC4)nc4c3CCC4(F)F)cc2)COC1 (centres unmarked) [Example 572, 3-(4-(2-(2-cyclobutylazetidin-1-yl)-7,7-difluoro-6,7-dihydro-5H-cyclopenta[d]pyrimidin-4-yl)phenyl)oxetan-3-amine]			56.3 nM	> 100 nM
C[C@H]1[C@H](O)CN1c1nc(-c2cc3c(s2)CCC3NS(C)(=O)=O)c2c(n1)C(F)(F)CC2 (some centres unmarked) [Example 574]			9.4 nM	11.1 nM
C[C@@H]1N(c2nc(-c3ccc4c(c3)OC[C@@H]4NS(C)(=O)=O)c3c(n2)C(F)(F)CC3)C[C@@]1(C)O [Example 575, N—((R)-6-(7,7-difluoro-2-((2S,3R)-3-hydroxy-2,3-dimethylazetidin-1-yl)-6,7-dihydro-5H-cyclopenta[d]pyrimidin-4-yl)-2,3-dihydrobenzofuran-3-yl)methanesulfonamide]			5.9 nM	52.4 nM
C[C@@H]1N(c2nc(-c3ccc4c(c3)CCC43COC(=O)N3)c3c(n2)C(F)(F)CC3)C[C@@]1(C)O (stereo partly drawn) [Example 576, 5-(7,7-difluoro-2-((2S,3R)-3-hydroxy-2,3-dimethylazetidin-1-yl)-6,7-dihydro-5H-cyclopenta[d]pyrimidin-4-yl)-2,3-dihydrospiro[indene-1,4′-oxazolidin]-2′-one]			6.8 nM	> 100 nM
CS(=O)(=O)N[C@H]1COc2cc(-c3nc(N4CC[C@@H]4C(F)(F)F)nc4c3CCC4(F)F)ccc21 [Example 577, N—((R)-6-(7,7-difluoro-2-((R)-2-(trifluoromethyl)azetidin-1-yl)-6,7-dihydro-5H-cyclopenta[d]pyrimidin-4-yl)-2,3-dihydrobenzofuran-3-yl)methanesulfonamide]			0.6 nM	2.1 nM
C[C@H]1[C@H](O)CN1c1nc(-c2ccc3c(c2)COC[C@H]3NS(C)(=O)=O)c2c(n1)C(F)(F)CC2 [Example 578, N—((S)-7-(7,7-difluoro-2-((2S,3R)-3-hydroxy-2-methylazetidin-1-yl)-6,7-dihydro-5H-cyclopenta[d]pyrimidin-4-yl)isochroman-4-yl)methanesulfonamide]			6.1 nM	22.5 nM
C[C@H]1[C@H](O)CN1c1nc(-c2ccc3c(c2)COC[C@@H]3NS(=O)(=O)C2CC2)c2c(n1)C(F)(F)CC2 [Example 579, N—((R)-7-(7,7-difluoro-2-((2S,3R)-3-hydroxy-2-methylazetidin-1-yl)-6,7-dihydro-5H-cyclopenta[d]pyrimidin-4-yl)isochroman-4-yl)cyclopropanesulfonamide]			2.7 nM	25 nM
CS(=O)(=O)N[C@H]1COCc2cc(-c3nc(N4CC[C@@H]4C(F)(F)F)nc4c3CCC4(F)F)ccc21 [Example 581, N—((R)-7-(7,7-difluoro-2-((R)-2-(trifluoromethyl)azetidin-1-yl)-6,7-dihydro-5H-cyclopenta[d]pyrimidin-4-yl)isochroman-4-yl)methanesulfonamide]			0.8 nM	3.1 nM
